In US20060178307A1, “Modulation of NMDA receptor currents via orexin receptor and/or CRF receptor” (priority 2005, published 2006):
Where no end group is shown, it is not given here.

Assays:
[1] = test system: cocaine reinforcement; assay: Operant cocaine self-administration, progressive ratio schedule; assay type: in vivo, rats; conditions: 10 mg/kg i.p. on 4th day of progressive ratio, n=12
Protocol: Rats were cannulated with an intra-venous cannula to their jugular vein. After one week to 10 days of recovery, the animals were trained to lever press for cocaine (0.5 mg/infusion, 2 second infusion) in Coulburn self-administration boxes. A tone and light above the active lever signalled during a press for cocaine and then a 20 second timeout followed the active lever press.
After 3-4 weeks of self-administration of cocaine (0.5 mg/infusion) ramping from fixed ratio of 1 lever press (FR1) to receive a reward to a stable fixed ratio of 5 lever presses to receive a reward (FR5) schedule, animals lever pressed for cocaine on a progressive ratio schedule for 4 days. On the second and third day, each animal received a vehicle injection (i.p.), and on the fourth day the animals received an injection (i.p.) of the OXR1 antagonist: SB334867, 10 mg/kg. As a control, orexin modulation of food self-administration was examined under the same paradigm. For food self-administration, animals were trained to an FR5 schedule for food pellets.

[2] = test system: NMDAR mEPSCs; assay: NMDAR mEPSCs in Mg2+-free buffer at −40 mV; assay type: cell-based, rat
Protocol: To examine changes in number or function of NMDARs after orexin treatment NMDAR mEPSCs were recorded in buffer without Mg^2+, and in the presence CNQX (10 μM), glycine (20 μM) and lidocaine (500 μM). Orexin A (100 nM) caused a significant increase in amplitude in NMDAR mEPSCs 15 min after application (17.1±0.7 pA, n=8, FIG. 7B,D,F) compared to untreated neurons (14.2±0.9 pA, n=8, FIG. 7A,D,F) or at 3-4 hours after orexin A application (13.9±0.5 pA, n=7, FIG. 7C,D,F).
AMPAR mEPSCs were recorded in cells voltage-clamped at −70 mV in lidocaine (500 μM), APV (50 μM) and sucrose (100 mM). NMDAR mEPSCs were recorded at −40 mV in Mg2+-free external solution with lidocaine (500 μM), glycine (20 μM), and CNQX (10 μM). mEPSCs were collected using Clampex (Axon Instruments) and analyzed using Mini Analysis Program (Synaptosoft). Detection criteria were set at >10 pA, <1 ms rise-time, and <3 ms decay-time for AMPAR mEPSCs and >10 pA, <1 ms rise-time, and <10 ms decay-time for NMDAR mEPSCs. mEPSC traces were recorded while sampling every 10 μs, the images were filtered at 5 kHz. Averaged mEPSCs were constructed using Mini Analysis Program (Synaptosoft).

[3] = test system: AMPAR/NMDAR ratio of EPSCs in VTA dopamine cells; assay: AMPAR/NMDAR ratio after 5-min bath application to VTA slices; assay type: cell-based, rat; conditions: orexin A 100 nM 5 min, n=8
Protocol: The next study investigated whether orexin signaling in the VTA is required for the long-term plasticity associated with the development of behavioral sensitization. Long-term synaptic plasticity at excitatory synapses on VTA neurons was examined 24 hr after a 5-day treatment of cocaine (15 mg/kg) or saline (0.9%), a time course shown to induce long-lasting locomotor sensitization to cocaine (Thomas et al., 2001), with or without the OXR1 antagonist, SB 334867 (10 mg/kg, FIG. 5). To assay for synaptic plasticity, the relative contributions of AMPARs and NMDARs to EPSCs recorded in VTA dopamine cells were compared. Consistent with the potentiation observed following acute and 7-day cocaine treatments (Borgland et al., 2004), 5-day treatment with cocaine potentiated the AMPAR/NMDAR ratio compared to saline controls (FIG. 5A, saline: 0.4±0.07, n=4; cocaine: 0.8±0.1, n=4, p<0.05). […]
To calculate the AMPAR/NMDAR ratio, an average of 12 EPSCs at +40 mV was computed before and after application of the NMDAR blocker, AP5 (50 μM) for 5 min. NMDAR responses were calculated by subtracting the average response in the presence of AP5 (AMPAR only) from that seen in its absence; the peak of the AMPAR EPSC was divided by the peak of the NMDAR EPSC to yield an AMPAR/NMDAR ratio.

[4] = test system: NMDA-induced current; assay: Holding current change on bath-applied NMDA; assay type: cell-based, rat; conditions: NMDA 50 μM 30 sec
Protocol: As a final test to determine at what time point after orexin treatment NMDARs were altered, NMDA (50 μM, 30 sec) was bath-applied, and the change in holding current was recorded. There was a significant increase in NMDA-induced current 15 min after orexin A (100 nM) application (orexin A: 344±27 pA, n=7; control: 245±43, n=9, p<0.05, FIG. 7H), but not after 3-4 hours (orexin A: 305±59, n=6; p>0.05, FIG. 7I).

Row | Molecule | breakpoint (cocaine) [1] | natural log of active lever presses for cocaine [1] | raw active lever presses for cocaine [1] | total number of cocaine infusions [1] | frequency of NMDAR mEPSCs ([2]; 3-4 hours after orexin A) | NMDAR mEPSC amplitude ([2]; 3-4 hours after orexin A, n=7) [pA] | frequency of NMDAR mEPSCs ([2]; 15 min after orexin A) | NMDAR mEPSC amplitude ([2]; 15 min after orexin A 100 nM, n=8) [pA] | AMPAR/NMDAR ratio ([3]; 15 min after treatment) | AMPAR/NMDAR ratio ([3]; after 3-4 hours) | NMDA-induced current ([4]; 3-4 hours after orexin A, n=6) [pA] | NMDA-induced current ([4]; 15 min after orexin A 100 nM, n=7) [pA]
1 | Cc1nc2ccc(NC(=O)Nc3ccnc4cccnc34)cc2o1.Cl [SB 334867, 1-(2-methylbenzoxazol-6-yl)-3-[1,5]naphthyridin-4-yl urea hydrochloride] | reduced | reduced | reduced | decreased | – | – | – | – | – | – | – | –
2 | orexin A: neuropeptide synthesized in neurons of the LH; orexin receptor agonist selective for the OXR1 receptor (QPLPDCCRQKTCSCRLYELLHGAGNHAAGILTL; ends and bridges not checked; cysteine pairing not given here; UniProt O43612 34-66, looked up) | – | – | – | – | 2.5±0.4 | 13.9±0.5 | 2.1±0.3 | 17.1±0.7 | 0.29±0.04 | 0.75±0.1 | 305±59 | 344±27
